Data from patent US5912259A, “Method for treating and preventing neurodegenerative disorders by administering a thiazolidinone” (Warner-Lambert Company, priority 1998, dated 1999).

Key:
[1] = test system: inducible nitric oxide synthase (iNOS), BV-2 microglia; assay: Nitric oxide production in LPS-activated BV-2 microglia (Griess reaction); type: cell-based; conditions: Mus musculus, LPS 4 μg/mL, 16 hours, read-out: IC50, inhibition of nitric oxide production
Protocol: BV-2 microglia were grown in 6-well tissue culture plates in DMEM/F12 media supplemented with 10% fetal calf serum. Prior to activation, cells were given fresh media containing various amounts of thiazolidinone. One hour after drug treatment, microglia were activated with lipopolysaccharide (LPS, 4 μg/mL) and placed in an incubator at 37° C. in an atmosphere containing 5% CO2. After 16 hours, cultures were evaluated for inducible nitric oxide synthase (iNOS) activity and expression. iNOS activity was determined using the Griess reaction. Cell-free culture media was mixed with an equal volume of Griess reagent (one volume of 1.0% sulfanilamide in 5% phosphoric acid mixed with one volume of 0.1% naphthylenediamine dihydrochloride in water) and incubated for 5 minutes at room temperature. Absorbance was measured at 560 nm and the concentration within a sample was determined using sodium nitrite as standard. iNOS expression was evaluated by extracting cellular protein and performing Western blot analysis using a monoclonal antibody specific for iNOS.

cortical neurons = assay: Hypoxia/hypoglycemia-induced death of cortical neurons (LDH); type: cell-based, fetal Sprague-Dawley rat
From the text: Cerebral ischemia can be modeled in vitro by lowering oxygen and glucose in the media of cortical neurons. For this study, cortical neurons were isolated from fetal Sprague-Dawley rat brains on Day E18. Cortical hemispheres were sectioned, dissociated, and triturated in Hank's Balanced Salt Solution (HBSS) containing 0.1% trypsin. Cell concentration was adjusted to 620,000 cells/mL by the addition of Dulbecoo's Modified Eagles Medium (DME) and Ham's Nutrient mixture F-12 (F12) 1:1 supplemented with heat-inactivated 10% horse serum and 6% fetal calf serum. A 100 μL aliquot of cell suspension was pipetted into each individual well of a 96-well polyethylenimine-coated culture plate. After 4 days in an incubator at 37° C. in an atmosphere of 8% CO2,100 μL medium was drawn off from each well and replaced with 100 μL of DME/F12 with 10% horse serum to which 30 μg/mL 5-fluoro-2-deoxyuridine and 70 μg/mL uridine were added to prevent further division of the glial cells. Cultures were read every 2 to 3 days thereafter by half volume (100 μL) replacement with DME/F12 (10% horse serum).
Cells were exposed to an hypoxic/hypoglycemic environment (91% N2 /[…] /1% O2, 1 mM glucose, 37° C.) for varying times in 50 μL HBSS. Cultures were then returned to the normoxic incubator (21% O2 /8% CO2,25 mM glucose) and quantitative assessment of cell death made 24 hours later by measurement of the intracellular enzyme lactate dehydrogenase (LDH). Cells were exposed for 1 hour to the thiazolidinone or other drugs prior to the induction of hypoxia/hypoglycemia.

IL-1β = assay: Production of cytokine IL-1β; type: cell-based
E-selectin = assay: Cell-surface expression of E-selectin; type: cell-based
[2] = test system: canine leptomeningeal smooth muscle cells; assay: Amyloid β-peptide-induced cytotoxicity in canine leptomeningeal smooth muscle cells; type: cell-based, dog
From the text: Canine smooth muscle cells were isolated from freshly obtained old dog meninges. […] Old dogs have an angiopathy resembling the human condition. Smooth muscle cells are the site of cerebral vessel myopathy occurring in the Dutch form of Alzheimer's disease. The compromise of these cells ultimately leads to a cerebrovascular accident and the death of some humans.
Cells from the meninges were dissociated and kept in culture in 10% fetal calf serum and Dulbecco's minimal essential media with antibiotics for about 1 week on tissue culture plates before use in biochemical studies or transferal to uncoated microscope slides for morphological studies. These smooth muscle cells represent brain blood vessel cells and they can be passaged several times. For inducing cytotoxicity, the cells were treated, in serum-free media, with 10 to 20 μM of amyloid β-peptide that was 42 amino acids long. This peptide corresponds to the human β-peptide sequence. The peptide was dissolved in water immediately before use. This small amount of protein is believed to approximate the concentration of protein observed in postmortem samples in the brains of people who died with Alzheimer's dementia.
Percentages were determined by counting normal and apoptotic nuclei in three fields with five independent measures in a fluorescence microscope.

[3] = Systemic exposure in rats; conditions: rat, in vivo, 10 mg/kg
Protocol: (§1) As noted above, the thiazolidinone is additionally well-suited to treating elderly patients because of its long duration of action and its substantial lack of undesirable side effects. Toxicologic properties of the thiazolidinone were evaluated in single-dose oral and intravenous (IV) studies in mice and rats and multidose oral studies in rats and dogs. The thiazolidinone was tested in dogs and monkeys in escalating-dose oral toxicity to determine the most sensitive nonrodent species. […] The initial 13-week dog study was repeated to evaluate the reproducibility of the perivascular effects. Dose range-finding studies were performed in pregnant rats and rabbits, and genotoxic potential was assessed in vitro and in vivo. […] Based on exposure at the no-effect dose in definitive studies, the rat appears to be the most sensitive species followed by the dog and the monkey, albeit with minor differences in exposure between the species.

[4] = Toxicology studies in rats; type: in vivo, rat
Protocol: as §1

[5] = Toxicology studies in dogs; type: in vivo, dog
Protocol: as §1

[6] = 13-week toxicity study in monkeys; type: in vivo, monkey
Protocol: as §1

[7] = General pharmacokinetic and tolerability properties
[8] = rats, definitive 13-week studies

CC(C)(C)c1cc(/C=C2\SC(N)=NC2=O)cc(C(C)(C)C)c1O [CI-1004, (Z)-5-[[3,5-bis(1,1-dimethylethyl)-4-hydroxyphenyl]methylene]-2-imino-4-thiazolidinone methanesulfonate]
IC50 [1]: 2400 nM | duration of hypoxia/hypoglycemia before loss of viability (cortical neurons; 1 μM): no effect | duration of hypoxia/hypoglycemia before loss of viability (cortical neurons; 10 μM): significantly increased the duration of hypoxia/hypoglycemia before the cells lost viability | neuronal death after hypoxia/hypoglycemia (cortical neurons; 10 μM, 4 hours of exposure, control approximately 50% killed): no neuronal death | production of cytokine IL-1β (IL-1β): blocks production of the cytokine IL-1β | cell-surface expression of E-selectin (E-selectin): blocks | amyloid accumulation over the cells [2]: amyloid accumulation over the cells was reduced | cell death induced by amyloid ([2]; 20-30 μM in 5% DMSO/water v/v): significantly decrease the cell death induced by the amyloid | Cmax and AUC relative to male rats at the same dose [3]: approximately twice those in male rats at the same dose | Cmax ([3]; po): 970 ng/mL | AUC(0-t) at 24 h ([3]; po, male rats): 16500 ng·h/mL | renal effects ([4]; female rats, 10 mg/kg): Renal effects were seen | toxic effects ([4]; male rats, 10 mg/kg): No effects were observed | hepatic enzyme induction ([4]; rats): hepatic enzyme induction which was not associated with overt organ toxicity | gastrointestinal effects [4, 8]: gastrointestinal effects | renal effects [4, 8]: minor renal effects | hepatic enzyme induction [5]: hepatic enzyme induction which was not associated with overt organ toxicity | gastrointestinal effects ([5]; definitive 13-week studies): gastrointestinal effects | perivascular mononuclear infiltrates in brain ([5]; initial 13-week study): perivascular mononuclear infiltrates in brain were observed | ileo-cecal erosions ([6]; 13-week study, not attributed to drug): Superficial ileo-cecal erosions identified microscopically were observed | NSAID-related changes ([6]; 13 weeks): No typical NSAID-related changes were observed | GI tract and kidney tolerability [7]: relatively benign to the GI tract and kidneys | blood-brain barrier passage [7]: readily crosses the blood-brain barrier | half-life [7]: relatively long half-life
